# Paper PMC10817945, “Design of a novel analogue peptide with potent antibiofilm activities against Staphylococcus aureus based upon a sapecin B-derived peptide” (Scientific Reports, 2024)
# Read-outs that look alike come from different tables or passages of the source. Non-standard residues stand in square brackets, D forms with d. Residues, ends and D or L forms follow the SMILES beside them.
# Assays:
# Human red blood cells = assay: in vitro
# Description: (§1) The assay was performed using fresh human blood samples containing citrate phosphate dextrose anticoagulant collected from a blood bank (Iranian Blood Transfusion Organization). Human red blood cells (RBC) were centrifuged at 1700×g for 5 min; then the supernatant was removed and the erythrocyte pellet was diluted 1:100 in PBS to obtain a 1% erythrocyte suspension. […] Then, 50 μl of the 1% erythrocyte suspension and 50 μl of the peptides were mixed and added to wells of a 96-well polypropylene conical bottom microplate and incubated at 37 °C for 1 h. Following centrifugation of the samples at 1700×g for 5 min, 50 μl of the supernatant was transferred to wells of a 96-well flat-bottom plate for the absorbance measurement at 405 nm in a microplate reader. Identical volumes of Triton X-100 (1%) and PBS were used as positive and negative controls, respectively. The selectivity indexes (SI) were also determined as a toxicity indicator.
# in vitro = conditions: human
# Description: as §1
# S. aureus strains = assay type: cell-based, Staphylococcus aureus; conditions: for inhibition of biofilm formation: strains, 24 h
# Description: To investigate the inhibitory effect of KLK and mKLK peptides on bacterial surface attachment and biofilm formation, the bacterial suspension in TSB with a concentration of 10^7 CFU/ml was prepared from overnight culture. An aliquot of 100 μl of the bacterial suspension was added to wells of 96-well plates containing 100 μl of the peptides solution with concentrations of 1×, 1/2× and 1/4× MIC, resulting in the final peptides concentrations of 1/2×, 1/4× and 1/8× MIC. To investigate the inhibitory effect of the peptides on surface attachment the incubation was performed at 37 °C for 2 h and to evaluate their inhibitory activity on biofilm formation the incubation was performed at 37 °C for 24 h. The wells containing only TSB medium were used as negative controls. After incubation, the contents of the wells were removed and washed three times with PBS and the wells were stained with 200 μl of 0.1% crystal violet for 20 min. The plates were washed again and excess dye was removed. A volume of 200 μl of 95% ethanol was added to each well for 20 min and absorbance was measured at 570 nm by a microplate reader.
# [1] = test system: preformed S. aureus biofilms; assay type: cell-based, Staphylococcus aureus
# Description: The eradicative activity of KLK and mKLK peptides against preformed S. aureus biofilms was evaluated by determining MBEC, as previously described. The 24-h biofilms developed in TSB in a 96-well plate were washed three times with 200 μl PBS solution. Concentrations of the peptides ranging from 2 to 1024 µg/ml were prepared. A volume of 100 μl of each concentration was added to a corresponding well, and plates were incubated for 18–20 h at 37 °C. Then, wells were washed with sterile PBS solution, and 100 μl of PBS solution was added. The wells were thoroughly scraped with a sterile pipette tip, vortexed and sonicated to release the biofilm cells from the well surface. Subsequently, 10 μl of well contents were plated on MHA. Colonies were counted after 20 h at 37 °C. The MBEC was defined as the lowest concentration of peptide that inhibited bacterial regrowth.
# 24-h S. aureus biofilms = assay: Biofilm dispersal activity (crystal violet); assay type: cell-based, Staphylococcus aureus
# Description: To investigate the dispersal activity of KLK and mKLK peptide, the 24-h S. aureus biofilms were prepared in TSB medium in the 96-well plates. Then, the final concentrations of 1×, 2×, and 4 × MIC were prepared for each peptide in the wells. After incubation at 37 °C for 12 h, plates were washed with PBS three times to discard unattached bacteria. Subsequently, plates were stained with 250 μl of 0.5% crystal violet for 20 min at room temperature. Then, the wells were washed and 250 μl 33% acetic acid was added to them. Finally, the absorbance was measured at 570 nm using a microplate reader.
# S. aureus isolates = assay: microbe, parasite or virus in culture; assay type: cell-based, Staphylococcus aureus
# Description: Minimum inhibitory concentrations (MIC) of KLK, mKLK, and vancomycin were determined using microdilution broth assay according to clinical and laboratory standards institute (CLSI) guidelines with some modifications. Briefly, overnight cultures were diluted in Muller-Hinton broth (MHB; Merck, Germany) to achieve a final density of 5 × 10^5 CFU/ml. A volume of 100 μl of bacterial suspension was added to wells of sterile 96-well plates containing 100 μl of two-fold peptide dilutions, ranging from 0.25 to 256 µg/ml. Vancomycin was used as a positive control in this assay. […] MBC was determined by removing samples from wells with no visible growth, serially diluting, and plating on Mueller Hinton (MH) agar plates for CFU counting.
structure (smiles),measurement,setting,value
CC(C)C[C@@H](NC(=O)[C@H](N)CCCCN)C(=O)N[C@H](CCCCN)C(=O)N[C@H](CC(C)C)C(=O)N[C@H](CC(C)C)C(=O)N[C@H](CC(C)C)C(=O)N[C@H](CC(C)C)C(=O)N[C@H](CC(C)C)C(=O)N[C@H](CCCCN)C(=O)N[C@H](CC(C)C)C(=O)N[C@H](CCCCN)C(N)=O [KLK] (H-[dK][dL][dK][dL][dL][dL][dL][dL][dK][dL][dK]-NH2; N-terminus assumed),HC50,Human red blood cells,38.49 µg/mL
same,HC50,"Human red blood cells; red cells of human, 1 h",29.1 µM
same,"hemolysis at 1 h, 1.56 µM",in vitro,10.4%
same,"hemolysis at 1 h, 3.12 µM",in vitro,18.3%
same,"hemolysis at 1 h, 6.25 µM",in vitro,27.1%
same,"hemolysis at 1 h, 12.5 µM",in vitro,34.2%
same,"hemolysis at 1 h, 25 µM",in vitro,42.8%
same,"hemolysis at 1 h, 50 µM",in vitro,71.5%
same,"hemolysis at 1 h, 75 µM",in vitro,80.1%
same,"hemolysis at 1 h, 100 µM",in vitro,88.3%
same,"hemolysis at 1 h, 150 µM",in vitro,92.2%
same,"hemolysis at 1 h, 200 µM",in vitro,95.4%
same,"crystal violet absorbance at 570 nm, biofilm formation, Mean±SD","S. aureus strains; ATCC25923, 1/2MIC, control 2.302±0.006",1.654±0.006
same,"crystal violet absorbance at 570 nm, biofilm formation, Mean±SD","S. aureus strains; ATCC25923, 1/4MIC, control 2.302±0.006",2.069±0.04
same,"crystal violet absorbance at 570 nm, biofilm formation, Mean±SD","S. aureus strains; ATCC25923, 1/8MIC, control 2.302±0.006",2.113±0.01
same,"crystal violet absorbance at 570 nm, biofilm formation, Mean±SD","S. aureus strains; MRSA-1, 1/2MIC, control 2.115±0.01",1.606±0.01
same,"crystal violet absorbance at 570 nm, biofilm formation, Mean±SD","S. aureus strains; MRSA-1, 1/4MIC, control 2.115±0.01",1.924±0.004
same,"crystal violet absorbance at 570 nm, biofilm formation, Mean±SD","S. aureus strains; MRSA-1, 1/8MIC, control 2.115±0.01",1.947±0.05
same,"crystal violet absorbance at 570 nm, biofilm formation, Mean±SD","S. aureus strains; MRSA-2, 1/2MIC, control 2.354±0.04",1.861±0.007
same,"crystal violet absorbance at 570 nm, biofilm formation, Mean±SD","S. aureus strains; MRSA-2, 1/4MIC, control 2.354±0.04",2.128±0.01
same,"crystal violet absorbance at 570 nm, biofilm formation, Mean±SD","S. aureus strains; MRSA-2, 1/8MIC, control 2.354±0.04",2.187±0.002
same,"crystal violet absorbance at 570 nm, biofilm formation, Mean±SD","S. aureus strains; MRSA-3, 1/2MIC, control 1.541±0.02",0.204±0.03
same,"crystal violet absorbance at 570 nm, biofilm formation, Mean±SD","S. aureus strains; MRSA-3, 1/4MIC, control 1.541±0.02",1.739±0.002
same,"crystal violet absorbance at 570 nm, biofilm formation, Mean±SD","S. aureus strains; MRSA-3, 1/8MIC, control 1.541±0.02",1.441±0.04
same,"crystal violet absorbance at 570 nm, biofilm formation, Mean±SD","S. aureus strains; MSSA-1, 1/2MIC, control 2.190±0.01",1.609±0.03
same,"crystal violet absorbance at 570 nm, biofilm formation, Mean±SD","S. aureus strains; MSSA-1, 1/4MIC, control 2.190±0.01",1.971±0.10
same,"crystal violet absorbance at 570 nm, biofilm formation, Mean±SD","S. aureus strains; MSSA-1, 1/8MIC, control 2.190±0.01",2.007±0.13
same,"crystal violet absorbance at 570 nm, biofilm formation, Mean±SD","S. aureus strains; MSSA-2, 1/2MIC, control 1.802±0.02",1.261±0.01
same,"crystal violet absorbance at 570 nm, biofilm formation, Mean±SD","S. aureus strains; MSSA-2, 1/4MIC, control 1.802±0.02",1.627±0.01
same,"crystal violet absorbance at 570 nm, biofilm formation, Mean±SD","S. aureus strains; MSSA-2, 1/8MIC, control 1.802±0.02",1.633±0.04
same,inhibition of biofilm formation,S. aureus strains; 2,48-66%
same,inhibition of biofilm formation,S. aureus strains; 4,9-11%
same,inhibition of biofilm formation,S. aureus strains; 8,6-9%
same,MBEC,[1]; ATCC25923,512 µg/mL
same,MBEC,[1]; MRSA-1,1024 µg/mL
same,MBEC,[1]; MRSA-2,1024 µg/mL
same,MBEC,[1]; MRSA-3,1024 µg/mL
same,MBEC,[1]; MSSA-1,512 µg/mL
same,MBEC,[1]; MSSA-2,512 µg/mL
same,"MBEC, range over isolates",[1]; preformed biofilms,512 to 1024 µg/mL
same,"crystal violet absorbance at 570 nm, dispersal activity, Mean±SD","24-h S. aureus biofilms; ATCC25923, 1MIC, control 2.79±0.03",2.451±0.007
same,"crystal violet absorbance at 570 nm, dispersal activity, Mean±SD","24-h S. aureus biofilms; ATCC25923, 2MIC, control 2.79±0.03",2.322±0.02
same,"crystal violet absorbance at 570 nm, dispersal activity, Mean±SD","24-h S. aureus biofilms; ATCC25923, 4MIC, control 2.79±0.03",2.017±0.01
same,"crystal violet absorbance at 570 nm, dispersal activity, Mean±SD","24-h S. aureus biofilms; MRSA-1, 1MIC, control 1.903±0.003",1.695±0.05
same,"crystal violet absorbance at 570 nm, dispersal activity, Mean±SD","24-h S. aureus biofilms; MRSA-1, 2MIC, control 1.903±0.003",1.649±0.06
same,"crystal violet absorbance at 570 nm, dispersal activity, Mean±SD","24-h S. aureus biofilms; MRSA-1, 4MIC, control 1.903±0.003",1.426±0.01
same,"crystal violet absorbance at 570 nm, dispersal activity, Mean±SD","24-h S. aureus biofilms; MRSA-2, 1MIC, control 2.014±0.01",1.804±0.006
same,"crystal violet absorbance at 570 nm, dispersal activity, Mean±SD","24-h S. aureus biofilms; MRSA-2, 2MIC, control 2.014±0.01",1.71±0.01
same,"crystal violet absorbance at 570 nm, dispersal activity, Mean±SD","24-h S. aureus biofilms; MRSA-2, 4MIC, control 2.014±0.01",1.643±0.01
same,"crystal violet absorbance at 570 nm, dispersal activity, Mean±SD","24-h S. aureus biofilms; MRSA-3, 2MIC, control 1.255±0.29",1.1±0.09
same,"crystal violet absorbance at 570 nm, dispersal activity, Mean±SD","24-h S. aureus biofilms; MRSA-3, 4MIC, control 1.255±0.29",0.996±0.04
same,"crystal violet absorbance at 570 nm, dispersal activity, Mean±SD","24-h S. aureus biofilms; MSSA-1, 1MIC, control 1.787±0.1",1.589±0.01
same,"crystal violet absorbance at 570 nm, dispersal activity, Mean±SD","24-h S. aureus biofilms; MSSA-1, 2MIC, control 1.787±0.1",1.483±0.01
same,"crystal violet absorbance at 570 nm, dispersal activity, Mean±SD","24-h S. aureus biofilms; MSSA-1, 4MIC, control 1.787±0.1",1.348±0.01
same,"crystal violet absorbance at 570 nm, dispersal activity, Mean±SD","24-h S. aureus biofilms; MSSA-2, 1MIC, control 2.116±0.006",1.858±0.12
same,"crystal violet absorbance at 570 nm, dispersal activity, Mean±SD","24-h S. aureus biofilms; MSSA-2, 2MIC, control 2.116±0.006",1.713±0.06
same,"crystal violet absorbance at 570 nm, dispersal activity, Mean±SD","24-h S. aureus biofilms; MSSA-2, 4MIC, control 2.116±0.006",1.52±0.001
same,MIC,S. aureus isolates; ATCC25923,4 µg/mL
same,MIC,S. aureus isolates; MRSA-1,8 µg/mL
same,MIC,S. aureus isolates; MRSA-2,8 µg/mL
same,MIC,S. aureus isolates; MRSA-3,8 µg/mL
same,MIC,S. aureus isolates; MSSA-1,4 µg/mL
same,MIC,S. aureus isolates; MSSA-2,4 µg/mL
same,MIC,S. aureus isolates; three MRSA isolates,8 µg/mL
same,MIC,S. aureus isolates; two MSSA isolates,4 µg/mL
